# Where two headings read alike, the source gives them in different places.
# Columns and labels:
# Assay type in all cases: in vivo
# [1] = system: pigweed (Amaranthus retroflexus); test: Test A pre-/postemergence greenhouse herbicide test, visual injury rating 0-100; conditions: for pest or weed control at 500 g/ha: 500 g ai/ha
# In short: (§1)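 Pre + post at same time; soil = loam/sand. Post stage 1–2 leaf, 2–10 cm. Formulation: non-phytotoxic solvent mix w/ surfactant. Greenhouse ~10 d, visual rating vs untreated, 0 (no effect)–100 (complete control).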
# [2] = system: velvetleaf (Abutilon theophrasti); test: as above; conditions: for pest or weed control at 500 g/ha: 500 g ai/ha
# In short: as §1
# [3] = system: giant foxtail (Setaria faberii); test: as above; conditions: for pest or weed control at 500 g/ha: 500 g ai/ha
# In short: as §1
# [4] = system: morningglory (Ipomoea spp.); test: as above; conditions: for pest or weed control at 500 g/ha: 500 g ai/ha
# In short: as §1
# [5] = system: barnyardgrass (Echinochloa crus-galli); test: as above; conditions: for pest or weed control at 500 g/ha: 500 g ai/ha
# In short: as §1
# [6] = system: corn (Zea mays); test: as above; conditions: for plant injury at 500 g/ha: 500 g ai/ha
# In short: as §1
# [7] = system: large (Lg) crabgrass (Digitaria sanguinalis); test: as above; conditions: for pest or weed control at 500 g/ha: 500 g ai/ha
# In short: as §1
# [8] = system: wheat (Triticum aestivum); test: as above; conditions: for plant injury at 500 g/ha: 500 g ai/ha
# In short: as §1
# [9] = system: ragweed (common ragweed, Ambrosia elatior); test: Test C pre-/postemergence greenhouse test, plant response rating 0-100; conditions: Ambrosia artemisiifolia; for pest or weed control at 62 g/ha: 62 g ai/ha; for pest or weed control at 125 g/ha: 125 g ai/ha; for pest or weed control at 250 g/ha: 250 g ai/ha; for pest or weed control at 500 g/ha: 500 g ai/ha
# In short: (§2)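 Plants were scored visually against controls 13–15 days after treatment on a 0–100 scale, 100 meaning complete control. Test chemicals, formulated in surfactant-containing non-phytotoxic solvent, went preemergence onto seeds in loam–sand blend or postemergence onto 1- to 4-leaf plants (2–18 cm) grown in peat-based mix.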
# [10] = system: velvetleaf (Abutilon theophrasti); test: as above; conditions: Abutilon theophrasti; for pest or weed control at 62 g/ha: 62 g ai/ha; for pest or weed control at 125 g/ha: 125 g ai/ha; for pest or weed control at 250 g/ha: 250 g ai/ha; for pest or weed control at 500 g/ha: 500 g ai/ha
# In short: as §2
# [11] = system: morningglory (Ipomoea coccinea); test: as above; conditions: Ipomoea; for pest or weed control at 62 g/ha: 62 g ai/ha; for pest or weed control at 125 g/ha: 125 g ai/ha; for pest or weed control at 250 g/ha: 250 g ai/ha; for pest or weed control at 500 g/ha: 500 g ai/ha
# In short: as §2
# [12] = system: blackgrass (Alopecurus myosuroides); test: as above; conditions: Alopecurus myosuroides; for pest or weed control at 62 g/ha: 62 g ai/ha; for pest or weed control at 125 g/ha: 125 g ai/ha; for pest or weed control at 250 g/ha: 250 g ai/ha; for pest or weed control at 500 g/ha: 500 g ai/ha
# In short: as §2
# [13] = system: large (Lg) crabgrass (Digitaria sanguinalis); test: as above; conditions: Digitaria sanguinalis; for pest or weed control at 62 g/ha: 62 g ai/ha; for pest or weed control at 125 g/ha: 125 g ai/ha; for pest or weed control at 250 g/ha: 250 g ai/ha; for pest or weed control at 500 g/ha: 500 g ai/ha
# In short: as §2
# [14] = post-emergence, Postemergence, read-out: Plant response rating (0 to 100), Ragweed
# [15] = post-emergence, Postemergence, scale 0 to 100
# [16] = pre-emergence, Preemergence, read-out: Plant response rating, Ragweed
# [17] = post-emergence, Postemergence, read-out: Plant response rating (0 to 100), Velvetleaf
# [18] = pre-emergence, Preemergence, read-out: Plant response rating, Velvetleaf
# [19] = post-emergence, Postemergence, read-out: Plant response rating (0 to 100), Morningglory
# [20] = pre-emergence, Preemergence, read-out: Plant response rating, Morningglory
# [21] = pre-emergence, Preemergence, read-out: Plant response rating, Blackgrass
# [22] = post-emergence, Postemergence, read-out: Plant response rating (0 to 100), Crabgrass, Large
# [23] = pre-emergence, Preemergence, read-out: Plant response rating, Crabgrass, Large
structure (smiles),measurement,setting,value
"CCOC(OCC)(c1ccccc1)c1c[nH]nc1-c1cc(Cl)cc(Cl)c1 [Compound 14, 3-(3,5-dichlorophenyl)-4-(diethoxyphenylmethyl)-1H-pyrazole]",pest or weed control at 125 g/ha,"[1]; Amaranthus retroflexus, post-emergence, 240 h, Postemergence, 125 g ai/ha, read-out: Plant response rating (0 to 100 scale), Pigweed",80%
same,pest or weed control at 500 g/ha,"[1]; Amaranthus retroflexus, post-emergence, 240 h, Postemergence, read-out: Plant response rating (0 to 100 scale), Pigweed",90%
same,pest or weed control at 500 g/ha,"[1]; Amaranthus retroflexus, pre-emergence, 240 h, Preemergence, read-out: Plant response rating (0 to 100 scale), Pigweed",100%
same,"Pigweed plant response rating (0 = no effect, 100 = complete control)","[1]; Preemergence, 125 g ai/ha",70
same,pest or weed control at 125 g/ha,"[2]; Abutilon theophrasti, post-emergence, 240 h, Postemergence, 125 g ai/ha, read-out: Plant response rating (0 to 100 scale), Velvetleaf",80%
same,pest or weed control at 500 g/ha,"[2]; Abutilon theophrasti, post-emergence, 240 h, Postemergence, read-out: Plant response rating (0 to 100 scale), Velvetleaf",90%
same,pest or weed control at 500 g/ha,"[2]; Abutilon theophrasti, pre-emergence, 240 h, Preemergence, read-out: Plant response rating (0 to 100 scale), Velvetleaf",100%
same,"Velvetleaf plant response rating (0 = no effect, 100 = complete control)","[2]; Preemergence, 125 g ai/ha",50
same,"Foxtail, Giant plant response rating (0 = no effect, 100 = complete control)","[3]; Preemergence, 125 g ai/ha",0
same,pest or weed control at 125 g/ha,"[3]; Setaria faberi, post-emergence, 240 h, Postemergence, 125 g ai/ha, read-out: Plant response rating (0 to 100 scale), Foxtail, Giant",0%
same,pest or weed control at 500 g/ha,"[3]; Setaria faberi, post-emergence, 240 h, Postemergence, read-out: Plant response rating (0 to 100 scale), Foxtail, Giant",0%
same,pest or weed control at 500 g/ha,"[3]; Setaria faberi, pre-emergence, 240 h, Preemergence, read-out: Plant response rating (0 to 100 scale), Foxtail, Giant",0%
same,pest or weed control at 125 g/ha,"[4]; Ipomoea, post-emergence, 240 h, Postemergence, 125 g ai/ha, read-out: Plant response rating (0 to 100 scale), Morningglory",0%
same,pest or weed control at 500 g/ha,"[4]; Ipomoea, post-emergence, 240 h, Postemergence, read-out: Plant response rating (0 to 100 scale), Morningglory",0%
same,pest or weed control at 500 g/ha,"[4]; Ipomoea, pre-emergence, 240 h, Preemergence, read-out: Plant response rating (0 to 100 scale), Morningglory",0%
same,"Morningglory plant response rating (0 = no effect, 100 = complete control)","[4]; Preemergence, 125 g ai/ha",0
same,pest or weed control at 125 g/ha,"[5]; Echinochloa crus-galli, post-emergence, 240 h, Postemergence, 125 g ai/ha, read-out: Plant response rating (0 to 100 scale), Barnyardgrass",0%
same,pest or weed control at 500 g/ha,"[5]; Echinochloa crus-galli, post-emergence, 240 h, Postemergence, read-out: Plant response rating (0 to 100 scale), Barnyardgrass",0%
same,pest or weed control at 500 g/ha,"[5]; Echinochloa crus-galli, pre-emergence, 240 h, Preemergence, read-out: Plant response rating (0 to 100 scale), Barnyardgrass",0%
same,"Barnyardgrass plant response rating (0 = no effect, 100 = complete control)","[5]; Preemergence, 125 g ai/ha",0
same,"Corn plant response rating (0 = no effect, 100 = complete control)","[6]; Preemergence, 125 g ai/ha",0
same,plant injury at 125 g/ha,"[6]; Zea mays, post-emergence, 240 h, Postemergence, 125 g ai/ha, read-out: Plant response rating (0 to 100 scale), Corn",0%
same,plant injury at 500 g/ha,"[6]; Zea mays, post-emergence, 240 h, Postemergence, read-out: Plant response rating (0 to 100 scale), Corn",0%
same,plant injury at 500 g/ha,"[6]; Zea mays, pre-emergence, 240 h, Preemergence, read-out: Plant response rating (0 to 100 scale), Corn",0%
same,pest or weed control at 125 g/ha,"[7]; Digitaria sanguinalis, post-emergence, 240 h, Postemergence, 125 g ai/ha, read-out: Plant response rating (0 to 100 scale), Crabgrass, Large",0%
same,pest or weed control at 500 g/ha,"[7]; Digitaria sanguinalis, post-emergence, 240 h, Postemergence, read-out: Plant response rating (0 to 100 scale), Crabgrass, Large",0%
same,pest or weed control at 500 g/ha,"[7]; Digitaria sanguinalis, pre-emergence, 240 h, Preemergence, read-out: Plant response rating (0 to 100 scale), Crabgrass, Large",0%
same,"Crabgrass, Large plant response rating (0 = no effect, 100 = complete control)","[7]; Preemergence, 125 g ai/ha",0
same,"Wheat plant response rating (0 = no effect, 100 = complete control)","[8]; Preemergence, 125 g ai/ha",0
same,plant injury at 125 g/ha,"[8]; Triticum aestivum, post-emergence, 240 h, Postemergence, 125 g ai/ha, read-out: Plant response rating (0 to 100 scale), Wheat",0%
same,plant injury at 500 g/ha,"[8]; Triticum aestivum, post-emergence, 240 h, Postemergence, read-out: Plant response rating (0 to 100 scale), Wheat",0%
same,plant injury at 500 g/ha,"[8]; Triticum aestivum, pre-emergence, 240 h, Preemergence, read-out: Plant response rating (0 to 100 scale), Wheat",0%
same,pest or weed control at 62 g/ha,[9]; [14],60%
same,pest or weed control at 125 g/ha,[9]; [14],70%
same,pest or weed control at 250 g/ha,[9]; [15],75%
same,pest or weed control at 500 g/ha,[9]; [15],80%
same,pest or weed control at 62 g/ha,[9]; [16],75%
same,pest or weed control at 125 g/ha,[9]; [16],100%
same,pest or weed control at 250 g/ha,"[9]; pre-emergence, Preemergence",100%
same,pest or weed control at 500 g/ha,"[9]; pre-emergence, Preemergence",100%
same,pest or weed control at 62 g/ha,[10]; [17],75%
same,pest or weed control at 125 g/ha,[10]; [17],75%
same,pest or weed control at 250 g/ha,[10]; [15],80%
same,pest or weed control at 500 g/ha,[10]; [15],85%
same,pest or weed control at 62 g/ha,[10]; [18],75%
same,pest or weed control at 125 g/ha,[10]; [18],50%
same,pest or weed control at 250 g/ha,"[10]; pre-emergence, Preemergence",85%
same,pest or weed control at 500 g/ha,"[10]; pre-emergence, Preemergence",98%
same,pest or weed control at 62 g/ha,[11]; [19],0%
same,pest or weed control at 125 g/ha,[11]; [19],0%
same,pest or weed control at 250 g/ha,[11]; [15],0%
same,pest or weed control at 500 g/ha,[11]; [15],5%
same,pest or weed control at 62 g/ha,[11]; [20],0%
same,pest or weed control at 125 g/ha,[11]; [20],0%
same,pest or weed control at 250 g/ha,"[11]; pre-emergence, Preemergence",0%
same,pest or weed control at 500 g/ha,"[11]; pre-emergence, Preemergence",0%
same,pest or weed control at 62 g/ha,"[12]; post-emergence, Postemergence, read-out: Plant response rating (0 to 100), Blackgrass",0%
same,pest or weed control at 125 g/ha,"[12]; post-emergence, Postemergence, scale 0 to 100, read-out: Plant response rating, Blackgrass",0%
same,pest or weed control at 250 g/ha,[12]; [15],0%
same,pest or weed control at 500 g/ha,[12]; [15],0%
same,pest or weed control at 62 g/ha,[12]; [21],50%
same,pest or weed control at 125 g/ha,[12]; [21],20%
same,pest or weed control at 250 g/ha,"[12]; pre-emergence, Preemergence",0%
same,pest or weed control at 500 g/ha,"[12]; pre-emergence, Preemergence",30%
same,pest or weed control at 62 g/ha,[13]; [22],0%
same,pest or weed control at 125 g/ha,[13]; [22],0%
same,pest or weed control at 250 g/ha,[13]; [15],0%
same,pest or weed control at 500 g/ha,[13]; [15],0%
same,pest or weed control at 62 g/ha,[13]; [23],0%
same,pest or weed control at 125 g/ha,[13]; [23],0%
same,pest or weed control at 250 g/ha,"[13]; pre-emergence, Preemergence",0%
same,pest or weed control at 500 g/ha,"[13]; pre-emergence, Preemergence",0%

# Source: patent US10167262B2, “Herbicidal substituted 3-arylpyrazoles” (FMC CORPORATION, priority 2014, dated 2019)
